Measured values reported in US8877244B2, “Stabilized pesticidal granules” (priority 2006, dated 2014).

What was measured:
[1] = test system: large crabgrass (Digitaria sanguinalis); assay: Biology comparison: control of large crabgrass by stored granule samples; format: in vivo; conditions: after storage for 1 year at room temperature or 19 days at 50° C.
Source text: Callisto® (a commercially available liquid formulation containing 4 lbs/gal of the active ingredient 2-(2′-nitro-4′-methylsulphonylbenzoyl)-1,3-cyclohexanedione acid) (Syngenta Crop Protection, Inc.) is sprayed onto fertilizer granules (Scotts® Turf Builder® Lawn Fertilizer 29-3-4 (with added nutrients)) (The Scotts Co.) in an amount sufficient to achieve an average a.i. loading of 0.082% by weight. Sample 2 is a control sample that is freshly prepared and has not been stored. Sample 3 is stored for 1 year at ambient room temperature. Sample 4 is stored under accelerated conditions (19 days at 50° C.).
A spray solution of Example 1 is sprayed onto fertilizer granules (Scotts® Turf Builder® Lawn Fertilizer 29-3-4 (with added nutrients)) (The Scotts Co.) in an amount sufficient to achieve an average a.i. loading of 0.082% by weight. Sample 5 is stored for 1 year at ambient room temperature. Sample 6 is stored under accelerated conditions (19 days at 50° C.).
All samples are applied to large crabgrass (Digitaria sanguinalis) at 224 g ai/ha, and control assessed 10 days after treatment. Sample 1 is an untreated control.

[2] = Stability comparison: accelerated temperature storage of coated granules, a.i. extracted and assayed by HPLC; format: physicochemical; conditions: storage at 38° C. and 50° C.
Description: The materials prepared in examples 1-7 are tested for stability as follows: • 1) After obtaining the coated granules according to the procedures given above, material is divided up into samples by using a standard “Riffler”, which is used to generate statistically representative samples from a large batch. • 2) The individual “riffled” samples are put on accelerated temperature storage (in ovens) at 38° C. and 50° C. • 3) Samples are pulled from each temperature at regular intervals, and assayed for 2-(2′-nitro-4′-methylsulphonylbenzoyl)-1,3-cyclohexanedione acid concentration (weight %). Commonly 2-3 samples are pulled from each temperature, each week. • 4) The pulled samples are analyzed for stability by extraction of the a.i. material from the granules and assayed by HPLC.

Substance: 2-(2′-nitro-4′-methylsulphonylbenzoyl)-1,3-cyclohexanedione copper chelate
- control of large crabgrass compared with the unchelated (acid) form on fertiliser granules [1]: improved control of large crabgrass
- stability on granules compared with the unchelated (acid) form [2]: improved stability
